Assay results: patent US11344559B2, “PI3KGAMMA inhibitors” (The Regents of the University of California, priority 2019, dated 2022)

Key:
Format in all cases: cell-based
CCL2 protein levels [1] = experiment: Secondary screening: CCL2 protein ELISA in M1 polarized bone marrow derived macrophages; conditions: Z score of CCL2 protein (ELISA); 1 μM compound, 24 h, IFNg+LPS (M1) polarized bone marrow derived macrophages
Method: (§1) Primary screening was performed on 507 compounds identified by the above-described computational screening. Bone marrow derived macrophages were plated into 96 well plates at d7 post-harvest and incubated with 1 μM compound and polarization reagents for 24 h. Primary screening was performed on cells polarized with interferon gamma (IFNg)+Lipopolysaccharide (LPS) (M1 polarization). Methods of inducing macrophage polarization are known in the art, e.g., as described in Mosser et al., Curr. Protoc. Immunol. 2008 November; Chapter 14:Unit 14.2. doi: 10.1002/0471142735.im1402s83. After 24 h, cell supernatants were removed and screened for IL12b and CCL2 protein levels using an enzyme linked immunosorbent assay (ELISA). Additionally, viability of polarized macrophages incubated with compounds was measured using an MTT assay, a colorimetric assay that measures cell metabolic activity by quantifying NAD(P)H-dependent cellular oxidoreductase reduction of the tetrazolium dye MTT 3-(4,5-dimethylthiazol-2-yl)-2,5-diphenyltetrazolium bromide to its insoluble purple colored formazan. Compounds that increased IL12b protein levels or decreased CCL2 protein levels and reduced viability less than 10% were selected for secondary screening. Secondary screening was performed as described for primary screening with a subset of 141 of the original compounds.

IL12b protein levels [2] = experiment: Secondary screening: IL12b protein ELISA in M1 polarized bone marrow derived macrophages; conditions: Z score of IL12b protein (ELISA); 1 μM compound, 24 h, IFNg+LPS (M1) polarized bone marrow derived macrophages
Method: as §1

CCL2 protein levels [3] = experiment: Primary screening: CCL2 protein ELISA in M1 polarized bone marrow derived macrophages; conditions: Z score of CCL2 protein (ELISA); 1 μM compound, 24 h, IFNg+LPS (M1) polarized bone marrow derived macrophages
Method: as §1

IL12b protein levels [4] = experiment: Primary screening: IL12b protein ELISA in M1 polarized bone marrow derived macrophages; conditions: Z score of IL12b protein (ELISA); 1 μM compound, 24 h, IFNg+LPS (M1) polarized bone marrow derived macrophages
Method: as §1

IL12b protein levels [5] = experiment: IL12b protein expression (ELISA) after M1 polarization with bulk synthesized compounds; conditions: 10 micromolar compound 1 h before IFNgamma+LPS (M1) polarization, supernatants 24 h post-stimulation, read-out: IL12B protein expression (Percent of Control)
Method: Compounds with the highest activity levels in the primary, secondary and tertiary screening assays were resynthesized in bulk and then tested for their effects on protein expression of inflammatory cytokines after M1 (IFNg+LPS) macrophage polarization. Bone marrow derived macrophages were plated into 12 well plates at d7 post-harvest and incubated for 1 h with 10 micromolar compound prior to polarization in the presence of bulk synthesized compounds 1-14. Cells were then polarized by the addition of either IFNgamma+LPS (M1) and cell supernatants were harvested 24 h post-stimulation. Methods of inducing macrophage polarization are known in the art, e.g., as described in Mosser et al., Curr. Protoc. Immunol. 2008 November; Chapter 14:Unit 14.2. doi: 10.1002/0471142735.im1402s83. After 24 h, cell supernatants were removed and screened for IL12b protein levels using an enzyme linked immunosorbent assay (ELISA). Increases in IL12b protein levels induced by compounds were recorded as percent increase in IL12b protein expression compared to IL12b expression in the absence of compounds.

Arginase-1 expression = experiment: RNA screening: Arginase-1 expression in M2 (IL-4) polarized macrophages, quantitative RT-PCR; conditions: Macrophage; mRNA vs control; 1 μM compound 1 h before IL-4 (M2) polarization, mRNA harvested 6 h post-stimulation; read-out: RNA Screening IL-4 Arg 1
Method: (§2) Compounds with the highest activity levels in the primary and secondary screening assays were tested for their effects on transcription of inflammatory cytokines after M1 (IFNg+LPS) and M2 (IL-4) macrophage polarization. Bone marrow derived macrophages were plated into 12 well plates at d7 post-harvest and incubated for 1 h with 1 μM compound prior to polarization. Cell were then polarized by the addition of either IFNgamma+LPS (M1) or IL-4 (M2) and mRNA was harvested 6 h post-stimulation. Quantitative RT-PCR was used to determine the levels of IL-1beta expression in M1 polarized macrophages and of Arginase-1 and TGF-beta expression in M2 polarized macrophages. Compounds were selected from RNA screening that increased IL-1beta expression or decreased Arginase-1 or TGF-beta expression.

IL-1beta expression = experiment: RNA screening: IL-1beta expression in M1 (IFNg+LPS) polarized macrophages, quantitative RT-PCR; parameters: key: −: significant decrease in mRNA vs control (mRNA levels above 50% of control); −−: significant decrease in mRNA vs control (mRNA levels below 50% of control); +: significant increase in mRNA vs control; =: no significant change vs control; conditions: mRNA vs control; 1 μM compound 1 h before IFNgamma+LPS (M1) polarization, mRNA harvested 6 h post-stimulation
Method: as §2

TGF-beta expression = experiment: RNA screening: TGF-beta expression in M2 (IL-4) polarized macrophages, quantitative RT-PCR; parameters: key: −: significant decrease in mRNA vs control (mRNA levels above 50% of control); −−: significant decrease in mRNA vs control (mRNA levels below 50% of control); +: significant increase in mRNA vs control; =: no significant change vs control; conditions: mRNA vs control; 1 μM compound 1 h before IL-4 (M2) polarization, mRNA harvested 6 h post-stimulation
Method: as §2

Structure (SMILES) | Secondary Screen ZCCL2 (CCL2 protein levels [1]) | Secondary Screen ZIL12b (IL12b protein levels [2]) | Primary Screen ZCCL2 (CCL2 protein levels [3]) | Primary Screen ZIL12b (IL12b protein levels [4]) | activity at 10 µM (IL12b protein levels [5]) | mrna remaining at 1 µM (Arginase-1 expression) | RNA Screening Ifng + LPS Il1b (IL-1beta expression) | RNA Screening IL-4 Tgfb (TGF-beta expression)
CC(=O)N1CC2(CCN(S(C)(=O)=O)CC2)CC1C(=O)O (stereo not shown) [Compound 8, 2-acetyl-8-(methylsulfonyl)-2,8-diazaspiro[4.5]decane-3-carboxylic acid] | −1.79 | 0.74 | −3.6 | 0.13 | 118% | – | – | –
CCc1n[nH]c(SCC(=O)N2CCC3(CC2)CC(C(=O)O)N(C)C3)n1 (stereo not shown) [Compound 12, 8-{[(3-ethyl-1H-1,2,4-triazol-5-yl)thio]acetyl}-2-methyl-2,8-diazaspiro[4.5]decane-3-carboxylic acid] | – | – | – | – | 133% | – | – | –
CC(O)c1cn(CC2CCN(C(=O)c3cscn3)CC2)nn1 (stereo not shown) [Compound 7, 1-(1-{[1-(1,3-thiazol-4-ylcarbonyl)-4-piperidinyl]methyl}-1H-1,2,3-triazol-4-yl)ethanol] | −1.5 | 1.58 | −1.62 | 0.38 | 114% | < 50% | + | −− (significant decrease in mRNA vs control (mRNA levels below 50% of control))
CNc1ncccc1C(=O)N1CCC2(CC1)CC(C(=O)O)N(C)C2 (stereo not shown) [Compound 14, 2-methyl-8-{[2-(methylamino)-3-pyridinyl]carbonyl}-2,8-diazaspiro[4.5]decane-3-carboxylic acid] | – | – | – | – | 122% | – | – | –
CCc1cc(NCCc2csc(N)n2)n2nc(C)c(C)c2n1 [Compound 4, N-[2-(2-amino-1,3-thiazol-4-yl)ethyl]-5-ethyl-2,3-dimethylpyrazolo[1,5-a]pyrimidin-7-amine] | −1.61 | 0.58 | 1.08 | 1.46 | 92% | – | – | –
CC(=O)N1CCN(Cc2cnn(-c3ccccc3Cl)c2)CC(O)C1 (stereo not shown) [Compound 10, 1-acetyl-4-{[1-(2-chlorophenyl)-1H-pyrazol-4-yl]methyl}-1,4-diazepan-6-ol] | −0.36 | 1.64 | −1.59 | 0.55 | 121% | < 50% | = | −− (significant decrease in mRNA vs control (mRNA levels below 50% of control))
O=C(O)CCc1cc2n(n1)CCCN(Cc1c[nH]nc1C(=O)O)C2 [Compound 16, 4-((2-(2-carboxyethyl)-7,8-dihydro-4H-pyrazolo[1,5-a][1,4]diazepin-5(6H)-yl)methyl)-1H-pyrazole-3-carboxylic acid] | −0.84 | 0.56 | – | – | – | < 50% | + | –
CCc1n[nH]c(SCC(=O)NCCC(=O)Nc2nccs2)n1 [Compound 3, 3-({[(3-ethyl-1H-1,2,4-triazol-5-yl)thio]acetyl}amino)-N-1,3-thiazol-2-ylpropanamide] | 1.33 | 1.56 | – | – | – | > 50% | = | =
CN(C)c1cccc(C(=O)N2CCC3(CC2)CC(C(=O)O)N(C)C3)c1 (stereo not shown) [Compound 13, 8-[3-(dimethylamino)benzoyl]-2-methyl-2,8-diazaspiro[4.5]decane-3-carboxylic acid] | – | – | – | – | 125% | – | – | –
CC(C)NC(=O)NCC1CCCN(Cc2ccc3c(c2)OCCO3)C1 (stereo not shown) [Compound 6, N-{[1-(2,3-dihydro-1,4-benzodioxin-6-ylmethyl)piperidin-3-yl]methyl}-N′-isopropylurea] | 0.16 | 2.4 | 0.94 | 1.96 | 120% | > 50% | + | − (significant decrease in mRNA vs control (mRNA levels above 50% of control))
CCC(=O)N1CCC(c2ccc3c(c2)OCO3)C(O)C1 (stereo not shown) [Compound 15, 1-(4-(benzo[d][1,3]dioxol-5-yl)-3-hydroxypiperidin-1-yl)propan-1-one] | −0.95 | 0.25 | – | – | – | < 50% | + | –
OCCc1cn(C2CCN(Cc3cccnc3)CC2)nn1 [Compound 11, 2-{1-[1-(3-pyridinylmethyl)-4-piperidinyl]-1H-1,2,3-triazol-4-yl}ethanol] | −1.46 | 2.04 | −2.99 | −1.17 | 127% | < 50% | + | − (significant decrease in mRNA vs control (mRNA levels above 50% of control))
CC(=O)N1CCCn2nc(CNc3nc4ccccc4s3)cc2C1 [Compound 5, N-[(5-acetyl-5,6,7,8-tetrahydro-4H-pyrazolo[1,5-a][1,4]diazepin-2-yl)methyl]-1,3-benzothiazol-2-amine] | −1.33 | 0.72 | 1.04 | 1.64 | 127% | – | – | –
CCCn1cc(NC(=O)NCc2nn(C)c3ccc(C)cc23)nn1 [Compound 1, N-[(1,5-dimethyl-1H-indazol-3-yl)methyl]-N′-(1-propyl-1H-1,2,3-triazol-4-yl)urea] | −0.72 | 1.05 | −1.85 | 0.93 | 134% | – | – | –
COc1cccc2ccc(-c3ccc(N)nc3)nc12 [Compound 2, 5-(8-methoxyquinolin-2-yl)pyridin-2-amine] | 0.8 | 0.81 | – | – | – | > 50% | + | − (significant decrease in mRNA vs control (mRNA levels above 50% of control))
